The values that follow come from US20260176289A1, “SMALL MOLECULE INHIBITORS OF KRAS PROTEINS” (Merck Sharp & Dohme LLC, priority 2022, published 2026).

For one test, the system named is AsPC-1 cells. Nature of the test: Cellular phospho-ERK assay, AsPC-1 cells (homozygous KRAS-G12D). Type of test: cell-based. Conditions: read-out: AsPC1 pERK IC50. A digest of the protocol: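 ERK phosphorylation relative to total ERK is the endpoint, detected by AlphaScreen-based SureFire multiplex following a 2-hour treatment at 37 °C. Compounds are titrated 1:3 over ten points from 30 μM.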

The next test has as its target KRAS-G12D (Homo sapiens, UniProt P01116, G12D). Nature of the test: SOS-catalyzed nucleotide exchange assay (Procedure A, TR-FRET), KRAS-G12D. Type of test: biochemical. Conditions: nucleotide exchange, read-out: KRAS G12D GNE IC50. A digest of the protocol: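 Signal ratio (520/495 nm, excitation 340 nm) reports Bodipy-GDP retention on biotinylated RAS after SOS-catalyzed exchange with 3 mM GTP. SOS was 40 nM, except 160 nM for G12V. Room-temperature exchange lasted 60 min (90 min for G12V), following a 60 min compound preincubation.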

A further test concerns the target KRAS-WT (Homo sapiens, UniProt P01116). As to the kind of experiment: SOS-catalyzed nucleotide exchange assay (Procedure A, TR-FRET), KRAS-WT. Type of test: biochemical. The note with it: nucleotide exchange, read-out: KRAS WT GNE IC50. Summed up:
(§1)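 RAS (G12C carries C51S/C80L/C118S) loaded with Bodipy-GDP, complexed with Tb-streptavidin; cpd 60 min RT; + SOS/3 mM GTP. G12C 3/40 nM, WT 1/40, NRAS 1.25/40 nM RAS/SOS, 60 min; G12V 1.25/160 nM, 90 min. Normalized to DMSO and saturating inhibitor; 4PL fit.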

Another test has as its target KRAS-G12V (Homo sapiens, UniProt P01116, G12V). Nature of the test: SOS-catalyzed nucleotide exchange assay (Procedure A, TR-FRET), KRAS-G12V. It is filed as biochemical. Conditions: nucleotide exchange, read-out: KRAS G12V GNE IC50. Summed up: as §1
The mark [1] stands for this setting: Homo sapiens, ASPC1, 2 h, 2 hours compound incubation.
[2] abbreviates: Homo sapiens, ASPC1, 2 h, KRAS-G12D, 2 hours.

pIC50: −log10 of the molar value. Where two headings read alike, the source gives them in different places.

KRAS-G12V, sequence (P01116 with tags, fused parts or gaps isoform P01116-2 G12V): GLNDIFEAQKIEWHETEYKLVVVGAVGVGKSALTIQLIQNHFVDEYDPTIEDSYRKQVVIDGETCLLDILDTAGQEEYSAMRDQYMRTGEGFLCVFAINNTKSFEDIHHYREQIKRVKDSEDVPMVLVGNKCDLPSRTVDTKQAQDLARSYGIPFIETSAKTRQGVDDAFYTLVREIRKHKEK
KRAS-G12D, sequence (P01116 with tags, fused parts or gaps isoform P01116-2 G12D): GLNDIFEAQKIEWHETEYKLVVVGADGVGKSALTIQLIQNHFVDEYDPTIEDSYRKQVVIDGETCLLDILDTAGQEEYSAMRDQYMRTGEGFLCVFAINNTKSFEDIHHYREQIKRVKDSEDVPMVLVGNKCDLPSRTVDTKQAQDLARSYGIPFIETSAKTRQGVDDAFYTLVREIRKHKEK
KRAS-WT, sequence (P01116 with tags, fused parts or gaps isoform P01116-2): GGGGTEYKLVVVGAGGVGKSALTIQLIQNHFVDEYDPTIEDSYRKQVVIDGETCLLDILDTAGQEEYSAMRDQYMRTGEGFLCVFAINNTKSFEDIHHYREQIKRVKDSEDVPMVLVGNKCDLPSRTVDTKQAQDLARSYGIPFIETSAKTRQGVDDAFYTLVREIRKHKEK

For the molecule `C[C@@]1(O)COCCN(c2nc(OC[C@]3(CN4CCC5(CC4)CC5)CC3(F)F)nc3sc4c(-c5c(C6(F)CC6)c(Cl)cc6[nH]ncc56)nccc4c23)C1` [Ex-233, (6S)-4-(2-(((R)-1-((6-azaspiro[2.5]octan-6-yl)methyl)-2,2-difluorocyclopropyl)methoxy)-8-(6-chloro-5-(1-fluorocyclopropyl)-1H-indazol-4-yl)pyrido[4′,3′:4,5]thieno[2,3-d]pyrimidin-4-yl)-6-methyl-1,4-oxazepan-6-ol], the pIC50 in the test on AsPC-1 cells (setting [1]) is 6.30; on KRAS-G12D, 8.00; at KRAS-WT, 6.82; at KRAS-G12V it was 7.59.
As for `C=C1CN2C[C@@H](OC)C[C@@]2(COc2nc(N3CCOC[C@@](C)(O)C3)c3c(n2)sc2c(-c4c(C5CC5)c(Cl)cc5[nH]ncc45)nccc23)C1` [Ex-227, (6S)-4-(8-(6-chloro-5-cyclopropyl-1H-indazol-4-yl)-2-(((25,7aR)-2-meth-oxy-6-methylene-tetrahydro-1H-pyrrolizin-7a(5H)-yl)methoxy)pyrido [4′,3′:4,5]thieno[2,3-d]pyrimidin-4-yl)-6-methyl-1,4-oxaze-pan-6-ol], the pIC50 was 6.76 with AsPC-1 cells (setting [1]), 8.18 at KRAS-G12D, 7.73 on KRAS-WT and 7.66 on KRAS-G12V.
For `C[C@@]1(O)COCCN(c2nc(OC[C@@]34CCCN3C[C@H](F)C4)nc3sc4c(-c5c(C(F)(F)F)c(C(F)F)cc6[nH]ncc56)nccc4c23)C1` [Ex-155, (6S)-4-(8-(6-(difluoromethyl)-5-(trifluoromethyl)-1H-indazol-4-yl)-2-(((2R,7aS)-2-fluorotetrahydro-1H-pyrrolizin-7a(5H)-yl)methoxy)pyrido[4′,3′:4,5]thieno[2,3-d]pyrimidin-4-yl)-6-methyl-1,4-oxazepan-6-ol] the same measures were 6.03, 6.80, 6.46 and 6.68.
For `C[C@@]1(O)COCCN(c2nc(OC[C@]3(CN4CC5CC4(CF)C5)CC3(F)F)nc3sc4c(-c5c(C6(F)CC6)c(Cl)cc6[nH]ncc56)nccc4c23)C1` [Ex-259, (6S)-4-(8-(6-chloro-5-(1-fluorocyclopropyl)-1H-indazol-4-yl)-2-(((R)-2,2-difluoro-1-((1-(fluoromethyl)-2-azabicyclo[2.1.1]hexan-2-yl)methyl)cyclopropyl)metho-xy)pyrido[4′,3′:4,5]thieno[2,3-d]pyrimidin-4-yl)-6-methyl-1,4-oxazepan-6-ol] the same measures were 6.73, 7.95, 7.10 and 7.47.
With `Cc1cc2[nH]ncc2c(-c2nccn3c2c(Cl)c2nc(OC[C@@]45CCCN4C[C@H](F)C5)nc(N4CCOC[C@@](C)(O)C4)c23)c1C1CC1` (single isomer, unassigned) [Ex-297], the pIC50 in the test with AsPC-1 cells (setting [2]) is 6.20; on KRAS-G12D, 7.64; at KRAS-WT, 7.17; on KRAS-G12V it was 7.24.
Consider `C#CC(F)(F)c1c(C)cc2[nH]ncc2c1-c1nccc2c1sc1nc(OC[C@@]34CCCN3C[C@H](F)C4)nc(N3CCOC[C@@](C)(O)C3)c12` [Ex-153, (6S)-4-(8-(5-(1,1-difluoroprop-2-yn-1-yl)-6-methyl-1H-indazol-4-yl)-2-(((2R,7aS)-2-fluorotetrahydro-1H-pyrrolizin-7a(5H)-yl)methoxy)pyrido[4′,3′:4,5]thieno[2,3-d]pyrimidin-4-yl)-6-methyl-1,4-oxazepan-6-ol], for which the pIC50 was 5.78 in the test on AsPC-1 cells (Homo sapiens, ASPC1, 2 hours compound incubation); 6.91 on KRAS-G12D; 6.49 at KRAS-WT; 6.67 at KRAS-G12V.
For the molecule `Cn1ccc2cc3[nH]ncc3c(-c3nccc4c3sc3nc(OC[C@@]56CCCN5C[C@H](F)C6)nc(N5CCOC[C@@](C)(O)C5)c34)c21` [Ex-46], the pIC50 is 6.03 with AsPC-1 cells (setting [2]), 7.14 at KRAS-G12D, 6.78 at KRAS-WT and 6.80 on KRAS-G12V.
Turning to `C[C@@]1(O)COCCN(c2nc(OC[C@@]34CCCN3C[C@H](F)C4)nc3sc4c(-c5c6c(cc7[nH]ncc57)CCC6C(F)(F)F)nccc4c23)C1` (stereo partly drawn) [Ex-92], the negative-log IC50 (pIC50) in the test on AsPC-1 cells (setting [2]) was 5.73; on KRAS-G12D, 6.65; at KRAS-WT, 6.32; at KRAS-G12V it was 6.47.
As to `CN(C)C1CC(F)(F)C2C[C@]12COc1nc(N2CCOC[C@@](C)(O)C2)c2c(n1)sc1c(-c3c(C4(F)CC4)c(Cl)cc4[nH]ncc34)nccc12` (stereo partly drawn) [Ex-271], the pIC50 is 6.61 in the test on AsPC-1 cells (KRAS-G12D, 2 hours); 7.37 at KRAS-G12D; 7.10 on KRAS-WT; 7.43 at KRAS-G12V.
As to `Cc1cc2cnn(C)c2c(-c2nccc3c2sc2nc(OC[C@@]45CCCN4C[C@H](F)C5)nc(N4CCOC[C@@](C)(O)C4)c23)c1C(F)(F)F` [Ex-157, (6S)-4-(8-(1,5-dimethyl-6-(trifluoromethyl)-1H-indazol-7-yl)-2-(((2R,7aS)-2-fluorotetrahydro-1H-pyrrolizin-7a(5H)-yl)methoxy)pyrido[4′,3′:4,5]thieno[2,3-d]pyrimidin-4-yl)-6-methyl-1,4-oxazepan-6-ol], the negative logarithm of the IC50 (pIC50) was 5.88 with AsPC-1 cells (setting [1]), 6.54 at KRAS-G12D, 5.02 on KRAS-WT and 5.37 at KRAS-G12V.
`C[C@@]1(O)COCCN(c2nc(OC[C@]3(CN4[C@@H]5CC[C@H]4C[C@@H](F)C5)CC3(F)F)nc3sc4c(-c5c(C6(F)CC6)c(Cl)cc6[nH]ncc56)nccc4c23)C1` [Ex-242, (6S)-4-(8-(6-chloro-5-(1-fluorocyclopropyl)-1H-indazol-4-yl)-2-(((R)-2,2-difluoro-1-(((1R,3R,5S)-3-fluoro-8-azabicyclo[3.2.1]octan-8-yl)methyl)cyclopropyl)metho-xy)pyrido[4′,3′:4,5]thieno[2,3-d]pyrimidin-4-yl)-6-methyl-1,4-oxazepan-6-ol]: the pIC50 with AsPC-1 cells (setting [1]) was 5.94; at KRAS-G12D it was 7.04; on KRAS-WT, 6.16; on KRAS-G12V it was 6.46.
As for `C[C@@]1(O)COCCN(c2nc(OC[C@@]34CCCN3C[C@H](F)C4)nc3sc4c(-c5c(C(F)F)c(C(F)(F)F)cc6[nH]ncc56)nccc4c23)C1` [Ex-61, (6S)-4-(8-(5-(difluoromethyl)-6-(trifluoromethyl)-1H-indazol-4-yl)-2-(((2R,7aS)-2-fluorotetrahydro-1H-pyrrolizin-7a(5H)-yl)methoxy)pyrido[4′,3′:4,5]thi-eno[2,3-d]pyrimidin-4-yl)-6-methyl-1,4-oxazepan-6-ol], the pIC50 in the test on AsPC-1 cells (setting [2]) is 5.89; on KRAS-G12D, 6.90; at KRAS-WT, 6.64; at KRAS-G12V, 6.63.
Consider `C=C1CN2C[C@@H](F)C[C@@]2(COc2nc(N3CCOC[C@@](C)(O)C3)c3c(n2)sc2c(-c4c(C5CC5)c(Cl)cc5[nH]ncc45)nccc23)C1` [Ex-222, (6S)-4-(8-(6-chloro-5-cyclopropyl-1H-indazol-4-yl)-2-(((2S,7aR)-2-fluoro-6-methylenetetra-hydro-1H-pyrrol-izin-7a(5H)-yl)methoxy)pyrido [4′,3′:4,5]thieno[2,3-d]pyrimidin-4-yl)-6-methyl-1,4-oxaze-pan-6-ol], for which the pIC50 was 6.61 in the test with AsPC-1 cells (setting [1]), 7.53 at KRAS-G12D, 6.98 at KRAS-WT and 7.34 at KRAS-G12V.
With `C[C@@]1(O)COCCN(c2nc(OC[C@]3(CN4CC5(CCO5)C4)CC3(F)F)nc3sc4c(-c5c(C6(F)CC6)c(Cl)cc6[nH]ncc56)nccc4c23)C1` [Ex-265, (6S)-4-(2-(((R)-1-((1-oxa-6-azaspiro[3.3]heptan-6-yl)methyl)-2,2-difluorocyclopropyl)methoxy)-8-(6-chloro-5-(1-fluorocyclopropyl)-1H-indazol-4-yl)pyrido[4′,3′:4,5]thieno[2,3-d]pyrimidin-4-yl)-6-methyl-1,4-oxazepan-6-ol], the negative logarithm of the IC50 (pIC50) was 6.70 in the test with AsPC-1 cells (setting [1]), 8.38 on KRAS-G12D, 7.61 on KRAS-WT and 7.83 on KRAS-G12V.
As for `Cc1cc2[nH]ncc2c(-c2nccc3c2sc2nc(OC[C@@]45CCCN4C[C@H](F)C5)nc(NCC4COC4)c23)c1C(F)(F)F` [Ex-186, 2-(((2R,7aS)-2-fluorotetra-hydro-1H-pyrrolizin-7a(5H)-yl)methoxy)-8-(6-methyl-5-(trifluorometh-yl)-1H-indazol-4-yl)-N-(oxetan-3-ylmethyl)pyrido [4′,3′:4,5]thieno[2,3-d] pyrimidin-4-amine], the pIC50 is 5.60 with AsPC-1 cells (setting [1]), 6.39 on KRAS-G12D, 6.01 on KRAS-WT and 6.36 at KRAS-G12V.
